Marks after values point to notes of the source that are not given here.
Columns and labels:
MC4r [1] = biological target: T1, MC4r (Homo sapiens, UniProt P32245); assay: Functional cAMP study in human MC4r expression system approximating maximal physiologic receptor densities; type: cell-based; parameters: host or cells: TREx-293 transfected with pcDNA4/TO/MC4R
Protocol: Assay for Agonist Activity. Accumulation of intracellular cAMP was examined as a measure of the ability of the peptides of the present invention to elicit a functional response in HEK-293 cells that express MC4-R. Confluent HEK-293 cells that express recombinant hMC4-R were detached from culture plates by incubation in enzyme-free cell dissociation buffer. Dispersed cells were suspended in Hanks' Balanced Salt Solution containing 10 mM HEPES (pH 7.5), 1 mM MgCl2, 1 mM glutamine, 0.5% albumin and 0.3 mM 3-isobutyl-1-methyl-xanthine (IBMX), a phosphodiesterase inhibitor. The cells were plated in 96-well plates at a density of 0.5×10^5 cells per well and pre-incubated for 10 minutes. Cells were exposed for 15 minutes at 37° C. to peptides of the present invention dissolved in DMSO (final DMSO concentration of 1%) at a concentration range of 0.05-5000 nM in a total assay volume of 200 μL. NDP-α-MSH was used as the reference agonist. cAMP levels were determined by an HTRF® cAMP cell-based assay system from Cisbio Bioassays utilizing cryptate-labeled anti-cAMP and d2-labeled cAMP, with plates read on a Perkin-Elmer Victor plate reader at […]. Data analysis was performed by nonlinear regression analysis with Graph-Pad Prism® software. The maximum efficacies of the test peptides of the present invention were compared to that achieved by the reference melanocortin agonist NDP-αMSH. […]

MC4r [2] = biological target: T1, MC4r; assay: Competitive inhibition binding assay, MC4r; parameters: expressed in transfected cells; host or cells: HEK-293 (membrane homogenates); conditions: binding studies
Protocol: A competitive inhibition binding assay is performed using membrane homogenates prepared from HEK-293 cells that express recombinant hMC1ra, hMC4r, hMC3r, or hMC5r, and from B16-F10 mouse melanoma cells (containing endogenous MC1r). In the examples that follow, all values are for human recombinant receptors unless otherwise noted. Assays are performed in 96 well GF/B Millipore multiscreen filtration plates (MAFB NOB10) pre-coated with 0.5% bovine serum albumin (Fraction V). […] After incubation for 60 to 90 minutes at 37° C., the assay mixture is filtered and the membranes washed three times with ice-cold buffer. Filters are dried and counted in a gamma counter for bound radioactivity.
Maximal specific binding (100%) is defined as the difference in radioactivity (cpm) bound to cell membranes in the absence and presence of 1 μM NDP-α-MSH. […] Each assay is conducted in duplicate or triplicate and the actual mean values are described, with results less than 0% reported as 0%. Ki values for test compounds are determined using Graph-Pad Prism® curve-fitting software.
Competitive Binding Assay Using Eu-NDP-α-MSH. […] The plates were incubated on a shaker for 15 minutes and read at 340 nm excitation and 615 nm emission wavelengths. […] Ki values were determined by curve-fitting with Graph-Pad Prism® software using a one-site fixed-slope competition binding model.

C57BL/6 male DIO mice = assay: Body weight and food intake in vivo study in diet induced obese (DIO) mice; parameters: species or system mouse; conditions: for Body Weight Change (%) Mean / Food Intake - 24 Hours (g) Mean: 1 mg/kg subcutaneous twice daily
Protocol: Compound 7.1 was assessed in a body weight and food intake in vivo study in diet induced obese (DIO) mice. C57BL/6 male DIO mice were utilized, that were 17 weeks of age on arrival. Animals were pre-conditioned on a high-fat diet for 11 weeks by Jackson Labs. […] Animals were single housed within a limited access rodent facility, and provided ad libitum with a commercial rodent diet and free access to drinking water. Animals were randomized into five groups, a vehicle group, three dose levels of compound 7.1 (3 mg/kg, 10 mg/kg and 30 mg/kg), and Peptide A, a positive control cyclic peptide of the formula Ac-Arg-cyclo(Om-Asn-D-Phe-Arg-Trp-Glu)-NH2. Following three days of sham dosing, animals were dosed for three days, with vehicle or Compound 7.1 dosed orally once daily at within one hour of lights out in the AM, and Peptide A dosed by subcutaneous injection twice daily within one hour before lights out and six hours after lights out. Body weights were measured one hour prior to lights out, and feed weights were measured both one hour prior to lights out and six hours post lights out.
• *p<0.05 vs. sham (vehicle control) using two-way ANOVA followed by Dunnett's post-test. • **p<0.01 vs sham (vehicle control) using two-way ANOVA followed by Dunnett's post-test.

T1 sequence (P32245 whole entry): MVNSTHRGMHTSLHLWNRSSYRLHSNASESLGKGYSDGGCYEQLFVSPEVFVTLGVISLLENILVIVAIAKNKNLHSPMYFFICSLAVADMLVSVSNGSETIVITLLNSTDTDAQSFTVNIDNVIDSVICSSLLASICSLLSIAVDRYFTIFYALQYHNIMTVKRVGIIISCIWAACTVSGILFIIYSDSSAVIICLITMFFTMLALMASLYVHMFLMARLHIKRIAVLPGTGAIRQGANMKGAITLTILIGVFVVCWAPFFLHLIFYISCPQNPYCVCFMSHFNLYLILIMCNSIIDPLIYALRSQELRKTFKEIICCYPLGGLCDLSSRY

Compound: CNC(C)(C)C(=O)N[C@H](Cc1ccc(Cl)cc1)C(=O)N1CCN(N(CC(C)C)C2CCN(C(C)=O)CC2)CC1 [Compound 7.9, N-[(1R)-2-[4-[(1-acetyl-4-piperidyl)-isobutyl-amino]piperazin-1-yl]-1-[(4-chlorophenyl)methyl]-2-oxo-ethyl]-2-methyl-2-(methylamino)propanamide]
- EC50 (MC4r [1]): 5 nM
- Emax (MC4r [1]; read-out: relative efficacy, compared to NDP-α-MSH): 19%
- Ki (MC4r [2]): 5 nM

Compound: Ac-Arg-cyclo(Om-Asn-D-Phe-Arg-Trp-Glu)-NH2 [Peptide A, reference compound]
- Body Weight Change (%) Mean (C57BL/6 male DIO mice; Day 0): 0%
- Food Intake - 24 Hours (g) Mean (C57BL/6 male DIO mice; Day 0, 24 hours post lights out): 0.99** g
- Body Weight Change (%) Mean (C57BL/6 male DIO mice; Day 1): −5.69** %
- Food Intake - 24 Hours (g) Mean (C57BL/6 male DIO mice; Day 1, 24 hours post lights out): 1.10** g
- Body Weight Change (%) Mean (C57BL/6 male DIO mice; Day 2): −8.37** %
- Food Intake - 24 Hours (g) Mean (C57BL/6 male DIO mice; Day 2, 24 hours post lights out): 1.67** g
- Body Weight Change (%) Mean (C57BL/6 male DIO mice; Day 3): −8.78** %
- feed intake (C57BL/6 male DIO mice; 1 mg/kg, 24 hours post lights out, entirety of the study, vs sham): significantly inhibited feed intake
- body weight (C57BL/6 male DIO mice; two times daily 1 mg/kg, throughout the study): decreased animal body weights
